Experimental findings from patent US20110123562A1, “ANTI-CANCER ACTIVE SUBSTANCE FROM ANTRODIA CAMPHORATA, METHOD FOR PREPARING THE SAME AND USE THEREOF” (priority 2009, published 2011) are described below.

Common to all, as to assay type: cell-based
Series [1] relates to prostate cancer cells (LNCaP). The series is described as follows: Anti-proliferative activity against prostate cancer cells. The procedure: (§1) HepG2 cells were obtained from American Type Culture Collection, ATCC, Rockville, Md., U.S.A. and were maintained in Williams medium E (WME), containing 10 mM/L HEPES, 5 μg/mL insulin, 2 μg/mL, glucagon, 0.05 μg/mL hydrocortisone, and 5% fetal bovine serum (Gibco Life Technologies, Grand Island, N.Y., USA). Colon cancer cells (CT26, BCRC 60443), prostate cancer cells (LNCaP, BCRC 60088) and breast cancer cells (MDA-MB-231, BCRC 60425) were obtained from the Biosources Collection and Research Center (BCRC) in the Food industry Research and Development Institute (Hsinchu, Taiwan).
(§2) HepG2 cells in WME were cultured on a 96-well cell culture plate (2.5×10^4cells per well) and incubate at 37° C. with 5% CO2. After 4 hours incubation, replace the medium with different concentrations of Antrodia camphorata sample extracts. […] After 72 and 96 h of incubation, cell proliferation was determined by MTS assay (MTS-based cell titer 96 non-radioactivity cell proliferation assay, Promega, Madison, Wis., U.S.A.) so as to examine the anti-hepatoma activity. […] Cell proliferation was determined at 72 and 96 h from the MTS absorbance reading at 490 nm for each concentration compared with the control. […] The selective effect on cancer cells was expressed as SI (selective index) value. The SI value was determined as the ratio of CC50 versus EC50 for a tested sample.

The subject of series [2] is colon cancer cells (CT26). Put plainly: Anti-proliferative activity against colon cancer cells. The procedure:
as §1, §2

Series [3] has as its system HepG2 cells. The series is described as follows: Cytotoxicity (CC50) on HepG2 cells, MTS assay. As to conditions: concentration reducing cell viability to 50% of control in 24 h. The procedure:
as §1, §2

Series [4] deals with HepG2 cells. Put plainly: Anti-proliferation of HepG2 cells, MTS assay. The protocol:
as §1
HepG2 cells in WME were cultured on a 96-well cell culture plate (2.5×10^4cells per well) and incubate at 37° C. with 5% CO2. After 4 hours incubation, replace the medium with different concentrations of Antrodia camphorata sample extracts. The Antrodia camphorata extracts were dissolved in 1% dimethyl sulfoxide (DMSO) and mixed with WME medium so as to prepare extracts at different concentrations and the final concentration of DMSO was maintained below 1%. Control cultures contained only extraction solvents, and blank wells contained 100 μL growth medium with no cells. After 72 and 96 h of incubation, cell proliferation was determined by MTS assay (MTS-based cell titer 96 non-radioactivity cell proliferation assay, Promega, Madison, Wis., U.S.A.) so as to examine the anti-hepatoma activity. MTS is a colorimetric method utilizing a tetrazolium reagent. Cell proliferation was determined at 72 and 96 h from the MTS absorbance reading at 490 nm for each concentration compared with the control. […] The EC50 of a sample is defined as the median effective dose of a sample (the concentration of the sample which results in 50% of cell viability) after treating the cancer cells for a certain period of time. At least three replications of each sample were tested to confirm cell proliferation and cytotoxicity. The selective effect on cancer cells was expressed as SI (selective index) value. The SI value was determined as the ratio of CC50 versus EC50 for a tested sample.
Background: Tetrazolium assays rely on reduction of a dye to a coloured formazan, in cell work by metabolically active cells.

For series [5], the system named is breast cancer cells (MDA-MB-231). Put plainly: Anti-proliferative activity against breast cancer cells. To be noted: MDA-MB-231 breast cancer cells. The protocol:
as §1, §2

For orientation: IC50 means the concentration needed to halve the response being measured. One may read the CC50 as the concentration giving 50% cytotoxicity. Low readings indicate greater toxicity to the cells, high ones lower toxicity to the cells. In the case of 4-acetylantroquinonol B, the 50% inhibitory concentration (IC50) in series [1] was 16.841 ± 3.41 µg/mL; in series [2], 48.12 ± 5.61 µg/mL; in series [5] it was 0.091 µg/mL. Further, the cell viability result in series [1], in series [2] and in series [5] was “below 50%” in each case. This substance also yielded a half-maximal cytotoxic concentration (CC50) with HepG2 cells [3] of more than 10 µg/mL. The “anti-proliferative activity compared to crude extract” value with HepG2 cells [4] came out at 50 times. Besides, the “EC50 72 hours” value in the series with HepG2 cells [4] (72 h treatment, MTS) turned out to be 0.1 µg/mL. Besides, the “EC50 96 hours” value with HepG2 cells [4] (96 h treatment, MTS) was determined as 0.08 µg/mL.
